Test results as given in patent US9200171B2, “AZO compound and ink containing the compound” (MITSUBISHI CHEMICAL CORPORATION, priority 2011, dated 2015).
Converted amounts (≈) assume the structure as drawn.

Key:
Assay type in all cases: physicochemical
[1] = Solubility C (saturated concentration at 5° C.) of compound in low-polarity solvent and product εC; conditions: for ε · C: n-decane, C at 5° C.
Description: The solubility C of each compound in each solvent was measured as follows.
Each compound was added to each solvent until a dissolution residue came to remain, and the mixture was subjected to an ultrasonic treatment for 30 minutes at 30° C. After the mixture was allowed to stand at 5° C. for 24 hours, centrifugal filtration was performed through a filter of 0.1 μm using a microcentrifuge (centrifugal force 5200×g). The resulting saturated solution was diluted to an appropriate concentration, and measurement of absorption spectra was performed on Hitachi spectrophotometer U-4100 using a quartz cell having an optical path length for measurement of 10 mm. The concentration of each compound was determined from a relationship between the absorbance at the absorption-maximum wavelength λmax (nm) and the molar extinction coefficient ε (L·mol^−1·cm^−1) previously measured, and the solubility C (mol·L^−1) was calculated. Moreover, the value of the product of the molar extinction coefficient ε (L·mol^−1·cm^−1) and the solubility C (mol·L^−1), εC, was determined.
Sudan Black B (manufactured by Tokyo Chemical Industry Co., Ltd.) that is a commercially available oil-soluble black dye was added to n-decane (relative permittivity 2.0, solubility in water 1 mg/L or less) until a dissolution residue came to remain, and the mixture was subjected to an ultrasonic treatment for 30 minutes at 30° C. After the mixture was allowed to stand at 5° C. for 24 hours, centrifugal filtration was performed through a filter of 0.1 μm using a microcentrifuge (centrifugal force 5200×g). The resulting saturated n-decane solution was diluted to an appropriate concentration.

[2] = Absorption-maximum wavelength λmax, molar extinction coefficient ε and solution colour in each solvent; conditions: for Absorption-maximum wavelength / ε: n-decane; for Color tone: n-decane solution; for ε: at absorption-maximum wavelength
Description: Each of the compounds 1 to 15 and the comparative example compounds 1 and 2 (1 mg each) was dissolved in each solvent (100 ml) and measurement of absorption spectra was performed on Hitachi spectrophotometer U-4100 using a quartz cell having an optical path length for measurement of 10 mm. From the resulting spectra, absorption-maximum wavelength λmax (nm) and molar extinction coefficient ε ([…]) were determined.

[3] = Relative permittivity of solvent (impedance meter method, 1 kHz, 22° C.); conditions: frequency 1 kHz
Source text: In the case where the solvent is used as a mixture, when the interaction between the solvents is small as in the invention, the relative permittivity of the mixed solvent can be approximated by multiplying relative permittivity of each solvent constituting the mixed solvent by each volume fraction and summing respective products. Moreover, when the interaction between the solvents is similarly small, solubility of the mixed solvent in water can be approximated by a value obtained by multiplying solubility of each solvent constituting the mixed solvent in water by each molar fraction and summing respective products.
Thereafter, the equivalent parallel capacity was measured while applying a test signal voltage of 0.1 V at a frequency of 1 kHz at 22° C. The relative permittivity was determined through the calculation according to the following equation to evaluate the solvent or ink. Relative permittivity=(equivalent parallel capacity)×(electrode spacing)/(electrode area)/(permittivity in vacuum (ε0)) <Method for Measuring Solubility of Solvent in Water>

[4] = Solubility of solvent in water at 25° C.; conditions: pure water, thermodynamic from solid, single solvent
Description: Pure water (30 g) and a solvent (8 g) were introduced into 110 ml of a vial, which was shaken 200 times/minute for 4 hours in a constant-temperature tank at 25° C. The mixture after shaking was centrifuged (6000×g, for 5 minutes), the aqueous layer was sampled, and the concentration of the solvent dissolved was quantitatively determined by gas chromatography. Since Isopar was not a single compound but a mixture, the quantitative determination was performed as TOC (total organic carbon), which was converted into solubility according to the following equation, the average molecular weight being shown as Mw. Solubility [mg/L]=TOC [mg/L]×(14Mw/{12(Mw−2)}
In the case of a mixed solvent in which two or more kinds of solvents were mixed, the solubility in water was determined by multiplying the solubility of each solvent in water by each molar fraction and summing up the resulting products.
In the case where the solvent species used is unclear, the solubility in water can be measured by the above method through identification of the solvent species by mass spectroscopy or the like.

Solubility ([1]; in n-decane, at 5° C.)	ε · C [1]	Absorption-maximum wavelength [2]	Color tone [2]	ε [2]	solubility at 24 h ([1]; organic solvent or mixture, thermodynamic from solid, in n-decane, at 5° C.)	relative permittivity [3]	solubility at 4 h [4]	Compound
150 mM (≈ 98 mg/mL)	7100 cm⁻¹	546 nm	red	47000 L/mol/cm				CCCCOc1ccc(N=Nc2sc(N=Nc3ccc(N(CC(CC)CCCC)CC(CC)CCCC)cc3Cl)nc2C)cc1 (stereo not shown) [Compound 14]
	1700 cm⁻¹	613 nm	blue	64000 L/mol/cm	27 mM (≈ 16.9 mg/mL)			CCCCc1ccc(N=Nc2cc(C#N)c(/N=N/c3ccc(N(CC(CC)CCCC)CC(CC)CCCC)cc3C)s2)cc1 (stereo not shown) [Compound 15]
						2.0	≤ 1 µg/mL	CCCCCCCCCC [n-decane]
						2.0		n-decaline
